Source: patent publication US10725001B2, “Liquid crystal composition, pH sensing device using the same, and pH sensing device kit using the same” (Tamkang University, priority 2016, dated 2020)

Test: Acid dissociation constants (pKa) of the dopant compounds
Type: physicochemical
Conditions: read-out: acid dissociation constant (pKa)

pKa	SMILES
8.74	CCCCCCCCCCCCOc1ccc(-c2ccc(C(=O)O)cc2)cc1 [Formula (I-4)]
7.66	CCCCCCCCOc1ccc(-c2ccc(C(=O)O)cc2)cc1 [Formula (I-2)]
9.77	CCCCCCCCCCOc1ccc(-c2ccc(C(=O)O)cc2)cc1 [Formula (I-3)]
7.68	CCCCCCc1ccc(-c2ccc(C(=O)O)cc2)cc1 [Formula (I-1)]
